The results in this text go back to patent US8536180B2, “Pyrimidine inhibitors of kinase activity” (AbbVie Inc., priority 2009, dated 2013).

Molecules are shown by their SMILES. pIC50: −log10 of the molar value.

This experiment concerns the target T1, C-terminal GST-tagged, recombinant, human IGF-1R, amino acids 954-1367 (Homo sapiens, UniProt P08069).
T1 construct: human IGF-1R, amino acids 954-1367 expressed by baculovirus in Sf21 cells; GST (C); purchased Cell Signaling Technology; host or cells: baculovirus in Sf21 cells
The experiment in a line: IGF-1R homogenous time-resolved fluorescence (HTRF) in vitro kinase assay. Particulars: IGF-1R kinase, ATP 50 μM final, biotinylated peptide substrate 0.5 μM, 60 minutes at room temperature. The experiment is classed as biochemical. As to the method:
IGF-1R kinase activity was assayed by a homogenous time-resolved fluorescence (HTRF) in vitro kinase assay (Mathis, G., HTRF(R) Technology. J Biomol Screen, 1999. 4(6): p. 309-314). Specifically, 10 μL C-terminal GST-tagged, recombinant, human IGF-1R, amino acids 954-1367 expressed by baculovirus in Sf21 cells (Cell Signaling Technology) was mixed with 10 μL inhibitor (various concentrations, 2% final DMSO) and 10 μL of ATP (50 μM final concentration) in reaction buffer (50 mM HEPES, pH 7.5, 10 mM MgCl2, 2 mM MnCl2, 0.1% BSA and 1 mM DTT, 40 μL final volume). The reaction was initiated by addition of 10 μL of biotinylated peptide substrate (Biotin-Ahx-[…], 0.5 μM final concentration) in a black 384-well plate (Packard). After 60 minutes incubation at room temperature, the reaction was quenched by addition of 60 μL stop/revelation buffer to give 30 mM EDTA, 1 μg/mL streptavidin-APC (Prozyme), 50 ng/mL anti-phosphotyrosine mAb PT66-K Europium Cryptate, 30 mM HEPES, pH 7.5, 120 mM KF, 0.005% Tween-20, 0.05% BSA). The quenched reaction was allowed to stand at room temperature for 1 hour and then read in a time-resolved fluorescence detector (Envision, Perkin Elmer) at 615 nm and 665 nm simultaneously. The ratio between the signal of 615 nm and 665 nm was used in the calculation of the IC50.
In general terms: TR-FRET usually uses a lanthanide donor and a delayed reading to cut background.

T1 sequence (P08069 954-1367): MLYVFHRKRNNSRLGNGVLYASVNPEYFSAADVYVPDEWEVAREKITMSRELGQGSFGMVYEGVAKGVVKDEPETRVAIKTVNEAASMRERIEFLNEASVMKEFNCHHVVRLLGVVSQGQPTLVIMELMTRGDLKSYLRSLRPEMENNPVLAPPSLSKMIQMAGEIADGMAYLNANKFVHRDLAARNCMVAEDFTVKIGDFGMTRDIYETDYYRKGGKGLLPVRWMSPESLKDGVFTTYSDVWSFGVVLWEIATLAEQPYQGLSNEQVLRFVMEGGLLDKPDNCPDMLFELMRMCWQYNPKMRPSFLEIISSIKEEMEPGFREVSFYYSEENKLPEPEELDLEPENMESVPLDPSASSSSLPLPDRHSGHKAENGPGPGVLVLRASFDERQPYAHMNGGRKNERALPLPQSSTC

As to `COc1cc(N2CCC(N(C)C)CC2)ccc1Nc1nccc(-c2c(-c3ccc4nc(Cc5ccccc5Cl)[nH]c4c3)nc3sccn23)n1` [Example 54, 4-{6-[2-(2-chlorobenzyl)-1H-benzimidazol-6-yl]imidazo[2,1-b][1,3]thiazol-5-yl}-N-{4-[4-(dimethylamino)piperidin-1-yl]-2-methoxyphenyl}pyrimidin-2-amine], the pIC50 (usually the negative decadic logarithm of the IC50, by convention in mol/L) is > 8.00.

Turning to `COc1ccccc1Cc1nc2ccc(-c3nc4sccn4c3-c3ccnc(Nc4ccc(N5CCC(N(C)C)CC5)cc4OC)n3)cc2[nH]1` [Example 55, N-{4-[4-(dimethylamino)piperidin-1-yl]-2-methoxyphenyl}-4-{6-[2-(2-methoxybenzyl)-1H-benzimidazol-6-yl]imidazo[2,1-b][1,3]thiazol-5-yl}pyrimidin-2-amine], the pIC50 was > 8.00.

Regarding `COc1cc(N2CCC(N(C)C)CC2)ccc1Nc1nccc(-c2c(-c3ccc4nc(Cc5ccccc5C)[nH]c4c3)nc3sccn23)n1` [Example 56, N-{4-[4-(dimethylamino)piperidin-1-yl]-2-methoxyphenyl}-4-{6-[2-(2-methylbenzyl)-1H-benzimidazol-6-yl]imidazo[2,1-b][1,3]thiazol-5-yl}pyrimidin-2-amine], the pIC50 is > 8.00.

With `CN(C)Cc1ccc(Nc2nccc(-c3c(-c4ccc5nc(Cc6ccccc6)[nH]c5c4)nc4sccn34)n2)cc1` [Example 57, 4-[6-(2-benzyl-1H-benzimidazol-6-yl)imidazo[2,1-b][1,3]thiazol-5-yl]-N-{4-[(dimethylamino)methyl]phenyl}pyrimidin-2-amine], the pIC50 was > 8.00.

With `CN(C)Cc1ccccc1Nc1nccc(-c2c(-c3ccc4nc(Cc5ccccc5)[nH]c4c3)nc3sccn23)n1` [Example 58, 4-[6-(2-benzyl-1H-benzimidazol-6-yl)imidazo[2,1-b][1,3]thiazol-5-yl]-N-{2-[(dimethylamino)methyl]phenyl}pyrimidin-2-amine], the pIC50 is < 6.30.

On to `O=C1CCCN1c1cccc(Nc2nccc(-c3c[nH]nc3-c3ccc4[nH]c(Cc5ccccc5Cl)nc4c3)n2)c1` [Example 59, 1-{3-[(4-{3-[2-(2-chlorobenzyl)-1H-benzimidazol-5-yl]-1H-pyrazol-4-yl}pyrimidin-2-yl)amino]phenyl}pyrrolidin-2-one], for which the negative logarithm of the IC50 (pIC50) was 6.30 to 7.00.

As to `CCn1cc(-c2ccnc(Nc3cccc(CN(C)C)c3)n2)c(-c2ccc3[nH]c(Cc4ccccc4OC)nc3c2)n1` [Example 60, N-{3-[(dimethylamino)methyl]phenyl}-4-{1-ethyl-3-[2-(2-methoxybenzyl)-1H-benzimidazol-5-yl]-1H-pyrazol-4-yl}pyrimidin-2-amine], the pIC50 was 7.30 to 8.00.

For the compound `CCn1cc(-c2ccnc(Nc3cccc(CN(C)C)c3)n2)c(-c2ccc3[nH]c(Cc4ccccc4Cl)nc3c2)n1` [Example 61, 4-{3-[2-(2-chlorobenzyl)-1H-benzimidazol-5-yl]-1-ethyl-1H-pyrazol-4-yl}-N-{3-[(dimethylamino)methyl]phenyl}pyrimidin-2-amine], the pIC50 was 7.30 to 8.00.

As to `CCn1cc(-c2ccnc(Nc3cccc(CN(C)C)c3)n2)c(-c2ccc3[nH]c(Nc4ccccc4)nc3c2)n1` [Example 62, 5-{4-[2-({3-[(dimethylamino)methyl]phenyl}amino)pyrimidin-4-yl]-1-ethyl-1H-pyrazol-3-yl}-N-phenyl-1H-benzimidazol-2-amine], the pIC50 is 7.30 to 8.00.

`CCn1cc(-c2ccnc(Nc3cccc(CN(C)C)c3)n2)c(-c2ccc3[nH]c(Cc4ccccc4)nc3c2)n1` [Example 63, 4-[3-(2-benzyl-1H-benzimidazol-5-yl)-1-ethyl-1H-pyrazol-4-yl]-N-{3-[(dimethylamino)methyl]phenyl}pyrimidin-2-amine]: the negative-log IC50 (pIC50) is 7.30 to 8.00.

As for `CCn1cc(-c2ccnc(Nc3ccccc3OC)n2)c(-c2ccc3[nH]c(Cc4ccccc4)nc3c2)n1` [Example 64, 4-[3-(2-benzyl-1H-benzimidazol-5-yl)-1-ethyl-1H-pyrazol-4-yl]-N-(2-methoxyphenyl)pyrimidin-2-amine], the pIC50 is 6.30 to 7.00.

In the case of `CCn1cc(-c2ccnc(Nc3ccccc3OC)n2)c(-c2ccc3[nH]c(Cc4ccccc4OC)nc3c2)n1` [Example 65, 4-{1-ethyl-3-[2-(2-methoxybenzyl)-1H-benzimidazol-5-yl]-1H-pyrazol-4-yl}-N-(2-methoxyphenyl)pyrimidin-2-amine], the negative-log IC50 (pIC50) was 6.30 to 7.00.

On to `CCn1cc(-c2ccnc(Nc3ccc(N4CCC(N(C)C)CC4)cc3OC)n2)c(-c2ccc3[nH]c(Cc4ccccc4)nc3c2)n1` [Example 66, 4-[3-(2-benzyl-1H-benzimidazol-5-yl)-1-ethyl-1H-pyrazol-4-yl]-N-{-4-[4-(dimethylamino)piperidin-1-yl]-2-methoxyphenyl}pyrimidin-2-amine], for which the pIC50 was 7.30 to 8.00.

Consider `CCn1cc(-c2ccnc(Nc3ccc(N4CCC(N(C)C)CC4)cc3OC)n2)c(-c2ccc3[nH]c(Cc4ccccc4Cl)nc3c2)n1` [Example 67, 4-{3-[2-(2-chlorobenzyl)-1H-benzimidazol-5-yl]-1-ethyl-1H-pyrazol-4-yl}-N-{4-[4-(dimethylamino)piperidin-1-yl]-2-methoxyphenyl}pyrimidin-2-amine], for which the negative-log IC50 (pIC50) was 7.00 to 7.29.

On to `CCn1cc(-c2ccnc(Nc3ccc(N4CCC(N(C)C)CC4)cc3OC)n2)c(-c2ccc3[nH]c(Cc4ccccc4OC)nc3c2)n1` [Example 68, N-{4-[4-(dimethylamino)piperidin-1-yl]-2-methoxyphenyl}-4-{1-ethyl-3-[2-(2-methoxybenzyl)-1H-benzimidazol-5-yl]-1H-pyrazol-4-yl}pyrimidin-2-amine], for which the pIC50 was 7.00 to 7.29.

`CCn1cc(-c2ccnc(Nc3ccc(N4CCC(N(C)C)CC4)cc3OC)n2)c(-c2ccc3[nH]c(-c4ccccc4)nc3c2)n1` [Example 69, N-{4-[4-(dimethylamino)piperidin-1-yl]-2-methoxyphenyl}-4-[1-ethyl-3-(2-phenyl-1H-benzimidazol-5-yl)-1H-pyrazol-4-yl]pyrimidin-2-amine]: the pIC50 was 6.30 to 7.00.
